Data published in patent US12612386B2, “Heteroaryl-triazole compounds as pesticides” (Bayer Aktiengesellschaft, priority 2020, dated 2026).

How the values were obtained:
Format in all cases: in vivo
[1] = system: larvae of the southern green stink bug (Nezara viridula); test: whole plant or invertebrate; conditions: 96 h
Procedure: Nezara viridula—Spray Test
(§1) • Solvent: 78.0 parts by weight of acetone • 1.5 parts by weight of dimethylformamide • Emulsifier: alkylarylpolyglycol ether
(§2) To produce a suitable preparation of active compound, 1 part by weight of active compound is mixed with the stated amount of solvent, and the concentrate is diluted with water, containing an emulsifier concentration of 1000 ppm, to the desired concentration. Further test concentrations are prepared by dilution with emulsifier containing water.
Barley plants (Hordeum vulgare) are sprayed with a test solution containing the desired concentration of the active ingredient and are infested with larvae of the southern green stink bug (Nezara viridula).
After 4 days mortality in % is determined. 100% means all the stink bugs have been killed; 0% means none of the stink bugs have been killed.

[2] = system: brown planthopper (Nilaparvata lugens); test: Nilaparvata lugens spray test; conditions: 96 h
Procedure: Nilaparvata lugens—Spray Test
as §1
as §2, with “solvents” for “solvent,”, “and” for “and the concentrate”
Rice plants (Oryza sativa) are sprayed with a preparation of the active ingredient of the desired concentration and the plants are infested with the brown planthopper (Nilaparvata lugens).
After 4 days mortality in % is determined. 100% means all planthoppers have been killed and 0% means none of the planthoppers have been killed.

[3] = system: larvae of the banded cucumber beetle (Diabrotica balteata); test: Diabrotica balteata spray test; conditions: 168 h, 100 g/ha (=32 μg/well), after 7 days, read-out: efficacy (seedling growth)
Procedure: Diabrotica balteata—Spray Test
as §1, §2
Soaked wheat seeds (Triticum aestivum) are placed in a multiple well plate filled with agar and some water and are incubated for 1 day to germinate (5 seeds per well). The germinated wheat seeds are sprayed with a test solution containing the desired concentration of the active ingredient. Afterwards each unit is infected with 10-20 larvae of the banded cucumber beetle (Diabrotica balteata).
After 7 days efficacy in % is determined. 100% means all the seedlings have grown up like in the untreated, uninfected control; 0% means none of the seedlings have grown.

[4] = system: fall armyworm larvae (Spodoptera frugiperda); test: whole plant or invertebrate; conditions: 168 h
Procedure: Spodoptera frugiperda—Spray Test
(§3) • Solvent: 78.0 parts by weight acetone • 1.5 parts by weight dimethylformamide • Emulsifier: alkylarylpolyglycol ether
as §2, with “solvents” for “solvent,”, “and” for “and the concentrate”
Maize (Zea mays) leaf sections are sprayed with a preparation of the active ingredient of the desired concentration. Once dry, the leaf sections are infested with fall armyworm larvae (Spodoptera frugiperda).
After 7 days mortality in % is determined. 100% means all caterpillars have been killed and 0% means none of the caterpillars have been killed.
Spodoptera frugiperda—Spray Test (SPODFR)
After the specified period of time, mortality in % is determined. 100% means all caterpillars have been killed and 0% means none of the caterpillars have been killed.

[5] = system: green peach aphid (Myzus persicae); test: Myzus persicae spray test (MYZUPE); conditions: 120 h, 100 g/ha, after 5 days
Procedure: Myzus persicae—Spray Test
• Solvent: 78.0 parts by weight acetone • 1.5 parts by weight dimethylformamide • Emulsifier: alkylarylpoly glycol ether
as §2, with “solvents” for “solvent,”, “and” for “and the concentrate”
Chinese cabbage (Brassica pekinensis) leaf disks infected with all instars of the green peach aphid (Myzus persicae), are sprayed with a preparation of the active ingredient of the desired concentration.
After 5 days mortality in % is determined. 100% means all aphids have been killed and 0% means none of the aphids have been killed.
Myzus persicae—Spray Test (MYZUPE)
as §3
After the specified period of time, mortality in % is determined. 100% means all aphids have been killed and 0% means none of the aphids have been killed.

Row | Structure (SMILES) | mortality at 500 g/ha [1] | mortality at 500 g/ha [2] | pest or weed control at 32 µg/disc, 100 g/ha [3] | mortality at 100 g/ha [4] | mortality at 100 g/ha [5] | mortality at 100 g/ha [1]
1 | Cc1nc([C@H](C)NC(=O)c2cc(C(F)(F)F)cc(S(C)(=O)=O)c2)n(-c2cc(C#N)ncn2)n1 [I-23] | 100% | 100% | 100% | – | – | –
2 | Cc1nc([C@H](C)NC(=O)c2cc(S(=O)(=O)C(F)(F)F)cc(S(=O)(=O)C(F)(F)F)c2)n(-c2cc(C#N)ncn2)n1 [I-29] | – | 100% | 100% | 100% | – | –
3 | Cc1nc([C@H](C)NC(=O)c2cc(OC(F)(F)F)cc(S(C)(=O)=O)c2)n(-c2cc(C(N)=O)ncn2)n1 [I-32] | 100% | 90% | – | 100% | 90% | 90%
4 | C[C@H](NC(=O)c1cccc(F)c1)c1ncnn1-c1cc(C(N)=O)ncn1 [I-44] | 100% | 100% | 100% | – | – | 100%
5 | C[C@H](NC(=O)c1cc(Cl)cc(S(C)(=O)=O)c1)c1ncnn1-c1cc(C(N)=O)ncn1 [I-59] | 100% | 100% | 100% | – | 90% | –
6 | CNC(=O)c1cc(-n2ncnc2[C@H](C)NC(=O)c2cc(Cl)cc(S(C)(=O)=O)c2)ncn1 [I-60] | 100% | 100% | 100% | – | 90% | –
7 | Cc1nc([C@H](C)NC(=O)c2cc(Cl)cc(S(C)(=O)=O)c2)n(-c2cc(C(N)=O)ncn2)n1 [I-61] | 100% | 90% | – | – | – | –
8 | CNC(=O)c1cc(-n2ncnc2[C@H](C)NC(=O)c2cc(Br)cc(OC(F)F)c2)ncn1 [I-72] | 100% | 100% | 80% | 100% | 90% | –
9 | C[C@H](NC(=O)c1cc(F)cc(C#N)c1)c1ncnn1-c1cc(C(N)=O)ncn1 [I-77] | 100% | 100% | 100% | – | 100% | –
10 | C[C@H](NC(=O)c1cc(C(F)(F)F)cc(S(C)(=O)=O)c1)c1ncnn1-c1cc(C(N)=O)ncn1 [I-78] | 100% | 100% | 100% | 100% | 90% | –
11 | C[C@H](NC(=O)c1cc(F)cc(OC(F)F)c1)c1ncnn1-c1cc(C(N)=O)ncn1 [I-79] | 100% | 100% | 100% | 100% | 100% | –
12 | CNC(=O)c1cc(-n2ncnc2[C@H](C)NC(=O)c2cc(C(F)(F)F)cc(S(C)(=O)=O)c2)ncn1 [I-81] | 100% | 100% | 100% | 100% | 100% | –
13 | C[C@H](NC(=O)c1cc(OC(F)(F)F)cc(S(C)(=O)=O)c1)c1ncnn1-c1cc(C(N)=O)ncn1 [I-82] | 100% | 100% | 100% | 100% | 90% | –
14 | CNC(=O)c1cc(-n2ncnc2[C@H](C)NC(=O)c2cc(OC(F)(F)F)cc(S(C)(=O)=O)c2)ncn1 [I-83] | 100% | 100% | 100% | 100% | 100% | –
15 | C[C@H](NC(=O)c1cccc(C(F)(F)F)c1)c1ncnn1-c1cc(C(N)=O)ncn1 [I-92] | 100% | 100% | 100% | 100% | 100% | –
16 | CNC(=O)c1cc(-n2ncnc2[C@H](C)NC(=O)c2cc(OC(F)F)cc(OC(F)F)c2)ncn1 [I-94] | 100% | 100% | 100% | 100% | 100% | –
17 | Cc1nc([C@H](C)NC(=O)c2cccc(OC(F)(F)F)c2)n(-c2cc(C(N)=O)ncn2)n1 [I-101] | 100% | 100% | 100% | 100% | 90% | –
18 | CC(C)N(C)C(=O)c1nccc(-n2ncnc2[C@H](C)NC(=O)c2cc(OC(F)(F)F)cc(OC(F)(F)F)c2)n1 [I-115] | – | 90% | 80% | 100% | 90% | –
19 | CNC(=O)c1nccc(-n2ncnc2[C@H](C)NC(=O)c2cc(OC(F)(F)F)cc(OC(F)(F)F)c2)n1 [I-116] | 100% | 100% | 100% | 100% | 100% | 100%
20 | C[C@H](NC(=O)c1cc(Cl)cc(S(=O)(=O)C(F)F)c1)c1ncnn1-c1cc(C(N)=O)ncn1 [I-118] | 100% | 100% | 100% | 100% | 90% | 100%
21 | C[C@H](NC(=O)c1cc(OC(F)(F)F)cc(C2(C#N)CC2)c1)c1ncnn1-c1cc(C(N)=O)ncn1 [I-120] | 100% | 100% | 100% | 100% | 90% | 100%
22 | C[C@H](NC(=O)c1cc(C#N)cc(OC(F)(F)F)c1)c1ncnn1-c1cc(C(N)=O)ncn1 [I-121] | 100% | 100% | 100% | 100% | 90% | 100%
23 | CNC(=O)c1cc(-n2ncnc2[C@H](C)NC(=O)c2cc(Br)cc(OC(F)(F)C(F)F)c2)ncn1 [I-122] | 100% | 100% | 100% | 100% | – | –
24 | C[C@H](NC(=O)c1cc(C#N)cc(C#N)c1)c1ncnn1-c1cc(C(N)=O)ncn1 [I-126] | 100% | 100% | – | – | – | 100%
25 | Cc1nc([C@H](C)NC(=O)c2cc(C#N)cc(C#N)c2)n(-c2cc(C(N)=O)ncn2)n1 [I-128] | 100% | 100% | 100% | – | – | 100%
26 | Cc1nc([C@H](C)NC(=O)c2cc(C(F)(F)F)cc(C(F)(F)F)c2)n(-c2cc(C(=O)N(C)C)ncn2)n1 [I-130] | 100% | 100% | 100% | 100% | – | –
27 | C[C@H](NC(=O)c1cc(C(F)F)cc(C(F)F)c1)c1ncnn1-c1cc(C(N)=O)ncn1 [I-133] | – | 100% | 100% | 100% | 100% | –
28 | CNC(=O)c1cc(-n2ncnc2[C@H](C)NC(=O)c2cc(C(F)F)cc(C(F)F)c2)ncn1 [I-134] | – | 100% | 100% | 100% | 90% | –
29 | C[C@H](NC(=O)c1cc(C(F)F)cc(C(F)F)c1)c1ncnn1-c1cc(C(=O)N(C)C)ncn1 [I-139] | 100% | 100% | 100% | – | 100% | –
30 | C[C@H](NC(=O)c1cc(OC(F)(F)F)cc(S(C)(=O)=O)c1)c1nc(C2CC2)nn1-c1cc(C(=O)N(C)C)ncn1 [I-154] | 100% | 100% | – | 100% | 90% | –
